Assay results: publication PMC8062851, “2-Methoxyestradiol and its derivatives inhibit store-operated Ca^2+ entry in T cells: Identification of a new and potent inhibitor” (Biochimica et Biophysica Acta. Molecular Cell Research, 2021)
“Also recorded” adds a separate entry of the source.

Tests used:
IP3 receptors = assay: IP3-evoked Ca2+ release in permeabilized Jurkat T cells; format: cell-based, human; conditions: 2 μM IP3
Method: 3 ∗ 10^7 Jurkat T-lymphocytes per measurement were centrifuged at 450 ×g for 5 min at room temperature. The pellet was rinsed twice, each time using 10 ml permeabilization buffer 1 (120 mM KCl, 10 mM NaCl, 1.2 mM MgCl2, 0.533 mM CaCl2, 1 mM EGTA and 10 mM HEPES, pH 7.2 (KOH), sterile filtered). Subsequently, the pellet was resuspended in 2 ml permeabilization buffer 1 containing 80 μg/ml saponin (Fluka) and the cells were incubated for 10 min at 37 °C. Subsequently, the cells were centrifuged at 450 ×g for 5 min at room temperature and the cell pellet was washed once in 10 ml permeabilization buffer 2 (120 mM KCl, 10 mM NaCl, 1.2 mM MgCl2 and 10 mM HEPES, pH 7.2 (KOH), sterile filtered). Finally, the cells were taken up in 1 ml permeabilization buffer 2, placed into a cuvette and measured at the fluorescence spectrophotometer. Before the start of the measurement, 0.5 μl of 1 mM Fura2 free acid (dissolved in pure water, final concentration: 0.5 μM), 5 μl of 5 mg/ml creatinkinase (dissolved in permeabilization buffer 2, final concentration: 25 μg/ml, 20 U/ml, Roche) and 10 μl of 2 M creatin phosphate (dissolved in permeabilization buffer 2, final concentration: 20 mM, Calbiochem) were added. Fura2 was used to measure the Ca^2+ concentration and creatinkinase and creatin phosphate were used as ATP-regenerating system. The measurement was controlled by FL Solutions (Version 4.1, Hitachi High-Technologies Corporation). Fura2 was alternatively excited every 2 s at 340 ± 5 nm and 380 ± 5 nm, each 400 ms apart. Fluorescence intensity was measured at an emission wavelength of 495 ± 5 nm for both excitation wavelengths. […] Ca^2+ concentrations were calculated according to Grynkiewicz et al. as described earlier in Section 2.4.
As a quantitative read-out for inhibition of IP3 receptors, the peak [Ca^2+] after IP3 addition was subtracted from the mean [Ca^2+] between 25 and 75 s before IP3 addition (dPeak). […] The rate constant K of the fitted data was used as a quantitative read-out for SERCA pump activity and its inhibition.

TMBP cells = assay: In vitro activation of TMBP cells by MBP, cytokine mRNA by qPCR; format: cell-based, rat
Method: Myelin basic protein (MBP)-reactive CD4^+ T cells retrovirally transduced to express enhanced GFP (TMBP cells) were established as previously reported. In brief, 6–8 week old female Lewis rats were immunized subcutaneously with 150 μl of emulsion consisting of equal parts of MBP (stock concentration: 1 mg/ml) and complete Freund's adjuvant containing heat-inactivated Mycobacterium tuberculosis extract (Difco; stock concentration: 2 mg/ml). Draining lymph nodes were harvested and passed through a cell strainer (40 μm) 9–10 days after immunization. The cell suspension was co-cultured with GP + E86 packaging cell lines producing replication-deficient retroviruses in the presence of 10 μg/ml MBP. Murine IL-2 was added to the culture for T cell expansion from day 2–4 after stimulation. The cell lines underwent 3–4 cycles of stimulation before being used for in vitro and in vivo experiments. […] Upon stimulation, they produced interferon-γ and IL-17.
In vitro activation assays were performed in 96-well plates. […]. TMBP cell activation on mRNA level was determined using qPCR and on surface protein level using surface marker staining and subsequent flow cytometry analysis.
Total RNA was isolated using the standard TRIzol method. cDNA was synthesized using the RevertAid First Strand cDNA Synthesis Kit (Thermo Fisher Scientific). Quantitative PCR (qPCR) was performed using the StepOnePlus™ Real-Time PCR System (Applied Biosystems), as previously described [[23], [24], [25]]. Rat TMBP cell data were obtained from three to four independent duplicate measurements. β-actin served as housekeeping gene. Human PBMC data were obtained from two independent healthy donors and duplicate measurements (representative data of one donor are shown). HPRT served as housekeeping gene. For all probes (TaqMan), a combination of 5′-FAM and 3′-TAMRA quencher was used as described.

CCc1cc2c(cc1OS(N)(=O)=O)CC[C@@H]1[C@@H]2CC[C@]2(C)[C@@H](CC#N)CC[C@@H]12 [STX564, 2-ethyl-3-sulfamoyloxy-17β-cyanomethylestra-1,3,5(10)-triene]
effect on IP3-evoked Ca2+ release (IP3 receptors): Neither STX564 nor Synta66 affected IP3-evoked Ca^2+ release significantly; also recorded: did not inhibit the Ca^2+ release by IP3 | concentration at which TCR/CD3-evoked pro-inflammatory cytokine expression was significantly reduced (TMBP cells; TMBP cells + MBP, 6 h, qPCR): ≥ 0.1 µM | concentration at which interferon-γ expression was significantly antagonized (TMBP cells; TMBP cells + MBP, 6 h, qPCR, STX564 vs Synta66): ≥ 0.1 µM | fold higher antagonist potency over Synta66, pro-inflammatory cytokine expression (TMBP cells; rat effector TMBP cells, especially INF-γ expression): approx. 100 fold
